Data on four compounds can be found in US20140221499A1, “NOVEL RODENT CONTROL AGENTS AND USES THEREOF” (priority 2011, published 2014).

The EC50 is the concentration at which the effect is half-maximal. Low values mean greater potency, high ones weaker potency.

The structures appear in SMILES notation.

Test [1] deals with T1, rTAAR7h (Rattus norvegicus, UniProt Q923Y4).
T1 sequence (Q923Y4 1-358): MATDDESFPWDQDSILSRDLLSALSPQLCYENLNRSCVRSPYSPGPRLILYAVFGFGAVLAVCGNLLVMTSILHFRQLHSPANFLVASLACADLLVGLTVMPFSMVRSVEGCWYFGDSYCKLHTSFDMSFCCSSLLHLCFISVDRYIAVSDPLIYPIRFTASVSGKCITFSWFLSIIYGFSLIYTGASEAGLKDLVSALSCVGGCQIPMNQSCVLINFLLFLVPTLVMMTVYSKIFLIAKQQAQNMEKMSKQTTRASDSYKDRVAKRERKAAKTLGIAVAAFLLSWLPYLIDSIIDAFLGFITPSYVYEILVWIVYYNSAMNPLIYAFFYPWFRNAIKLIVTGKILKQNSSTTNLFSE
In words: CRE-SEAP reporter gene assay in HEK293 cells transfected with rTAAR7h. It is filed as cell-based. Further details: Full Taar coding regions were cloned into pcDNA3.1; expressed in transfected cells; host or cells: HEK293. As to conditions: FIG. 11A, functional with or without 'Rho tag', EC50 ± s.e.m., 4-parameter Hill equation. The protocol:
(§1) FIG. 11 illustrates the dose-dependent responses of TAARs to amines. HEK293 cells were cotransfected with plasmids encoding CRE-SEAP and rTAARs (a) or mTAARs (b), incubated with concentrations of ligands indicated, and assayed for reporter activity (triplicates±s.d.). EC50 values (±s.e.m, bottom right) were calculated using SigmaPlot (Systat Software) and a 4-parameter Hill equation.
(§2) The following mixes (10 μM of each indicated compounds) were tested for their ability to activate rat TAARs. Mix 1: butylamine, dibutylamine, hexylamine. Mix 2: 2-aminopentane, isoamylamine, isobutylamine, isopropylamine. Mix 3: N,N-dimethylcyclohexylamine, 1-methylindole, tryptamine, phenylethylamine. Mix 4: indole, 1-methylpyrrolidine, 1-methylpiperidine, pyrrolidine. […]
(§3) Full Taar coding regions were cloned into pcDNA3.1-(Invitrogen) with or without a 5′ DNA extension of 69 bp encoding the first 20 amino acids of bovine rhodopsin followed by a cloning linker ([…]). […] Fluorescence was measured on an EnVision plate reader (Perkin Elmer) and SEAP activity graphed as relative fluorescence of a phosphatase substrate.
(§4) Here, we set out to identify agonists for additional mouse and rat TAARs. […] Transfected cells were incubated with test chemicals, and phosphatase activity was quantified with a fluorescent substrate as a reporter for TAAR activation. […]

The target in test [2] is T2, TAAR5 (Mus musculus, UniProt Q5QD14).
T2 sequence (Q5QD14 1-337): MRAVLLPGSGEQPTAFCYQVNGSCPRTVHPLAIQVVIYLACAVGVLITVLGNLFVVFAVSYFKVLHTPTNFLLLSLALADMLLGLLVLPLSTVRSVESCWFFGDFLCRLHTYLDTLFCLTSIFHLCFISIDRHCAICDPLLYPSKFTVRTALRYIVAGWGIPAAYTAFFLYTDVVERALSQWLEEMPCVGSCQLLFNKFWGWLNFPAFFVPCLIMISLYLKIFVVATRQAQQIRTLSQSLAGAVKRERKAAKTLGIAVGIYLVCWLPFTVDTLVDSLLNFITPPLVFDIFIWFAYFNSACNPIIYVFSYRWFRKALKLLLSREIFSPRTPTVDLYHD
As to conditions: cited from earlier work.

Test [3] deals with T3, rTAAR8c (Rattus norvegicus, UniProt Q923Y0).
T3 construct: Full Taar coding regions were cloned into pcDNA3.1; expressed in transfected cells; host or cells: HEK293
T3 sequence (Q923Y0 1-344): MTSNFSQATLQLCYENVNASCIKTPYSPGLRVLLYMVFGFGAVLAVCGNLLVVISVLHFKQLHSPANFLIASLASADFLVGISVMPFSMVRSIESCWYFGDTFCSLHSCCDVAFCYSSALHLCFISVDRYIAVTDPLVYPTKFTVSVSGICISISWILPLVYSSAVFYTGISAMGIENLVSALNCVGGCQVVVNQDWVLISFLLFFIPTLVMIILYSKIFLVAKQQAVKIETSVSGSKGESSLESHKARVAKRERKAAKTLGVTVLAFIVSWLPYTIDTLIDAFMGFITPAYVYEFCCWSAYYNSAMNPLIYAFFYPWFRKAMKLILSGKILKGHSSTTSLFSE
Description: CRE-SEAP reporter gene assay in HEK293 cells transfected with rTAAR8c. The test is classed as cell-based. As to conditions: FIG. 11A, functional with or without 'Rho tag', EC50 ± s.e.m., 4-parameter Hill equation. The protocol:
as §1, §2, §3, §4

For test [4], the target named is T4, rTAAR9 (Rattus norvegicus, UniProt Q923Y6).
T4 construct: Full Taar coding regions were cloned into pcDNA3.1; expressed in transfected cells; host or cells: HEK293
T4 sequence (Q923Y6 1-338): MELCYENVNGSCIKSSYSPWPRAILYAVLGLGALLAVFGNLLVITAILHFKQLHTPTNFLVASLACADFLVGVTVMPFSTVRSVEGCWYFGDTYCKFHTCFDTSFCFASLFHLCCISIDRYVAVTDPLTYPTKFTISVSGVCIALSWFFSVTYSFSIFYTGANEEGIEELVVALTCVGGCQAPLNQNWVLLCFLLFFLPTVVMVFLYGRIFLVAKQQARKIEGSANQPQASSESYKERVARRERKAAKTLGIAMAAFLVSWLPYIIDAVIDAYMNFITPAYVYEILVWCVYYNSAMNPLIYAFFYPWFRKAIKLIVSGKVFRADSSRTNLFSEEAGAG
Description: CRE-SEAP reporter gene assay in HEK293 cells transfected with rTAAR9. The test is classed as cell-based. As to conditions: FIG. 11A, functional with or without 'Rho tag', EC50 ± s.e.m., 4-parameter Hill equation. The protocol: as §1, §2, §3, §4

Test [5] concerns the target T5, mTAAR7b (Mus musculus, UniProt Q5QD11).
T5 sequence (Q5QD11 1-358): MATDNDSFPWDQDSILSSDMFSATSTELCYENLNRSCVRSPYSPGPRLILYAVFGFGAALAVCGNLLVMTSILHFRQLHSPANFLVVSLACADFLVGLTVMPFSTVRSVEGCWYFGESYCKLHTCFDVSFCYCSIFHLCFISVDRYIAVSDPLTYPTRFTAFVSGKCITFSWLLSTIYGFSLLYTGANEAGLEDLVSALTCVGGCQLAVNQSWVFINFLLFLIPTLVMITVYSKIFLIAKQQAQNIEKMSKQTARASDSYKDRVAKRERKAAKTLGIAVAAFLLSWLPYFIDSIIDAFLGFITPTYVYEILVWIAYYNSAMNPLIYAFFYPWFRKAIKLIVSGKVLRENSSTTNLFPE
Description: CRE-SEAP reporter gene assay in HEK293 cells transfected with mTAAR7b. It is filed as cell-based. Further details: Full Taar coding regions were cloned into pcDNA3.1; expressed in transfected cells; host or cells: HEK293. As to conditions: FIG. 11B, functional with or without 'Rho tag', EC50 ± s.e.m., 4-parameter Hill equation. The protocol:
as §1
Chemicals tested for the ability to activate mouse TAARs include those previously described (Liberles, S. D., and Buck, L. B. (2006) A second class of chemosensory receptors in the olfactory epithelium, Nature 442, 645-650), as well as the following mixes (5 μM of each indicated compounds). Mix 1: N,N-dimethyl-cyclohexylamine, N,N-dimethyl-phenylethylamine, creatinine, taurine. […]
as §3, §4
In general terms: Reporter assays use an easily measured gene product as a stand-in for the process of interest.

In the case of `CCCCCCCCN(C)C` [N,N-DIMETHYLOCTYLAMINE, N,N-dimethyloctylamine], a half-maximal effect in test [1] (EC50) was put at 12.7 ± 6.2 µM.

For `CN(C)C` [Trimethylamine, trimethylamine], in test [2], the TAAR5 activation result is recorded as “activates TAAR5”.

On to `CN1CCCCC1` [1-methylpiperidine], for which the concentration giving a half-maximal response (EC50) in test [3] amounted to 0.08 ± 0.02 µM; in test [4] it was 18.3 ± 0.4 µM.

Compound `CCCCN(C)C` [N,N-DIMETHYLBUTYLAMINE, N,N-dimethylbutylamine] came in with an EC50 in test [5] of 20.1 ± 8.9 µM.
